# Patent US20230339977A1, “SUBSTITUTED HETEROARYL COMPOUND, AND COMPOSITION AND APPLICATION THEREOF” (SUNSHINE LAKE PHARMA CO., LTD., priority 2020, published 2023)
# Assays:
# [1] = Stability in human liver microsomes; format: in vitro ADME
# Protocol: (§1) The stability of the compounds of the present invention in human and rat liver microsomes can be tested by the following two methods:
# (§2) Human or rat liver microsomes were incubated in polypropylene tubes in duplicate wells. A typical incubation mixture included human or rat liver microsomes (0.5 mg protein/mL), target compound (5 µM), and a total volume of 200 µL of NADPH (1.0 mM) potassium phosphate buffer (PBS, 100 mM, pH 7.4), the compound was dissolved in DMSO and diluted with PBS, the final concentration of the DMSO solution was 0.05%. Human or rat liver microsomes were incubated at 37° C. in an air-connected water bath. After pre-incubation for 3 minutes, […] was added to start the reaction. The same volume of ice-cold acetonitrile was added to terminate the reaction at different time points (0, 5, 10, 15, 30 and 60 min). Samples were stored at -80° C. until LC/MS/MS analysis.
# (§3) The linear concentration range of each target compound was determined, and then, the concentration of the target compounds in the human or rat liver microsomes incubation mixture was determined by LC/MS/MS method.
# (§4) Parallel incubations were performed using denatured microsomes as a negative control and dextromethorphan (70 µM) as a positive control. Negative control was incubated at 37° C., the reaction was terminated at different time points (0, 15 and 60 minutes); positive control was incubated at 37° C., the reaction was terminated at different time points (0, 5, 10, 15, 30 and 60 minutes). Positive and negative control samples were used in each assay to ensure the integrity of the microsomal incubation system.
# (§5) In addition, the stability data of the compounds of the present invention in human or rat liver microsomes can also be obtained from the following tests:
# (§6) Human or rat liver microsomes were incubated in polypropylene tubes in duplicate wells. A typical incubation mixture included human or rat liver microsomes (final concentration: 0.5 mg protein/mL), target compound (final concentration: 1.5 µM) and a total volume of 30 µL of K-buffer solution (containing 1.0 mM EDTA, 100 mM, pH 7.4). Compounds were dissolved in DMSO and diluted with K-buffer solution, the final concentration of DMSO was 0.2%. […]
# (§7) For each reaction, in vivo intrinsic hepatic clearance CLint is extrapolated by plotting the compound concentration (expressed as a percentage) in human or rat liver microsomal incubations as a percentage relative to time zero (ref.: Naritomi Y, Terashita S, Kimura S, Suzuki A, Kagayama A, Sugiyama Y. Prediction of human hepatic clearance from in vivo animal experiments and in vitro metabolic studies with liver microsomes from animals and humans. Drug Metabolism and Disposition 2001, 29: 1316-1324.).
# [2] = Stability in rat liver microsomes; format: in vitro ADME
# Protocol: as §1, §2, §3, §4, §5, §6, §7
# CTLL-2 cells = test: Inhibitory effect on CTLL-2 cell proliferation; format: cell-based; details: alamar blue, read-out: IC50 (nM) CTLL-2 (h)
# Protocol: CTLL-2, P-STAT3 and TF-1 cells were seeded in a 96-well culture plate at a density of 20,000/well with 90 µL per well, and the blank well was an equal amount of complete medium. 10 ul of different compound dilutions were added to each plate row BC, DE, and FG, and 5% DMSO medium with equal volume of the compound was added to positive wells and negative wells, and the final concentration of DMSO was 0.5%. After incubating in a 37° C. incubator for 20 h, alamar blue was added, the plate was incubated for 4 h, the fluorescence intensity of each well under the conditions of […], 580 nm wavelength was measured, and the IC50 value was calculated.
# TF-1 cells = test: Inhibitory effect on TF-1 cell proliferation; format: cell-based; details: Homo sapiens, alamar blue, read-out: IC50 (nM) TF-1 (h)
# Protocol: TF-1 cells were seeded in a 96-well culture plate at a density of 20,000/well with 80 µL per well, the blank well was an equal amount of complete medium, and 10 µL of the compound dilution solution was added to the 96-well plate B1-11, C1-11, E1-11, F1-11, positive and negative wells were added with 5% DMSO medium equal to the volume of the compound, and the final concentration of DMSO was 0.5%. After 30 min, GM-CSF with a final concentration of 2 ng/mL was added to rows B, C, and D (positive wells), and the remaining wells (rows E, F, and G) were added with the same volume of medium as cytokines (negative wells). After incubation for 44 h at 37° C. in 5% CO2, alamar blue was added, the plate was incubated for 4 h, the fluorescence intensity of each well under the conditions of […], 580 nm wavelength was measured, and the IC50 value was calculated.
# CTLL-2, P-STAT3 and TF-1 cells were seeded in a 96-well culture plate at a density of 20,000/well with 90 µL per well, and the blank well was an equal amount of complete medium. 10 ul of different compound dilutions were added to each plate row BC, DE, and FG, and 5% DMSO medium with equal volume of the compound was added to positive wells and negative wells, and the final concentration of DMSO was 0.5%. […]
# JAK1/TYK2 = test: Cell level activity test of JAK1/TYK2 (IFN-α induced STAT3 phosphorylation in PBMC); format: cell-based; details: Homo sapiens; P-STAT3 by ELISA in PBMC, compound 1 h, IFN-α 5000 U/mL 15 min; read-out: IC50 nM (JAK 1 /TYK2)
# Protocol: IFN-α can induce the phosphorylation of STAT3 downstream of JAK1/TYK2 in PBMC, and by measuring the level of STAT3 phosphorylation, the activity of the compound on JAK1/TYK2 at the cell level can be reflected.
# Whole blood was collected from healthy subjects, anticoagulated with heparin sodium, and PBMC (human peripheral blood mononuclear cells) were extracted. PBMC were seeded in a 96-well culture plates at a density of 1*106/well. Positive wells and negative wells were added with the same volume of DMSO as the compound, and the final concentration of DMSO was 0.5%. The compounds were incubated with the cells at 37° C. for 1 h, and then stimulated by adding IFN-α at a final concentration of 5000 U/mL, an equal volume of medium was added to the negative wells, and incubated for 15 min. The cells were centrifuged to remove the supernatant, then lysed, and P-STAT3 was measured according to the instructions of the ELISA kit, the absorbance was read at 450 nm, and the IC50 value or inhibition rate was calculated.
# [3] = pH 7.4, in vivo intrinsic hepatic clearance extrapolated
smiles,measurement,setting,value
"CC(=O)Nc1cc2c(-c3ccc4c(n3)C3(CCOC3)OC4)cn(C)c2cn1 (stereo not shown) [Example 2, N-(3-(4,5-Dihydro-2H,5′H-Spiro[Furan-3,7′-Furo[3,4-b]Pyridin]-2′-yl)-1-Methyl-1H-Pyrrolo[2,3-c]Pyridin-5-yl)Acetamide]",half-life,"[1]; human, pH 7.4, read-out: Human T½",0.804 h
same,CLint scaled,[1]; [3],36 mL/min/kg
same,CLint scaled,[2]; [3],15.4 mL/min/kg
same,half-life,"[2]; rat, pH 7.4, read-out: Rat T½",2.69 h
same,IC50,CTLL-2 cells,> 10000 nM
same,IC50,TF-1 cells,7560 nM
same,IC50,JAK1/TYK2,95.8 nM
